Earlier results on 1 compound are cited in patent US20240344040A1, “PROKARYOTIC AND EUKARYOTIC CELLS WITH BIOSYNTHESIZED SULFOTYROSINE FOR GENETIC INCORPORATION” (William Marsh Rice University, priority 2023, published 2024).

For this data set the following is noted: cells incubated with 1 mM pThr.

Consider `C[C@@H](OP(=O)(O)O)[C@H](N)C(=O)O` [phosphothreonine], for which the intracellular detection entry is “cannot be detected intracellularly”.
